Consider 1 molecule from publication PMC12459314, “Subcutaneous administration of a novel TRPM8 antagonist reverses cold hypersensitivity while attenuating the drop in core body temperature” (British journal of pharmacology, 2024).

Data set [1] in a line: Partition coefficient (logD), shake flask method. It is filed as physicochemical. The conditions noted are these: n-octanol / pH 7.4 phosphate buffer, pH 7.4. How it is done:
The partition coefficient (logD) at pH 7.4 of VBJ103 was determined using the shake flask method by Absorption Systems (Exton, PA, USA). The buffer was prepared by combining 50 ml of 0.2-M solution of KH2PO4 with 150 ml of dH2O and then adjusting to pH 7.4 with 10-N NaOH. In a single incubation, 15 μl of a 10-mM DMSO solution of each test article was added to test tubes which contained 0.75 ml of n-octanol and 0.75 ml of pH 7.4 phosphate buffer. Testosterone was also introduced to each tube as an internal control, also at a dosing concentration of 100 μM. These samples were gently mixed on a benchtop rotator for 1 h at room temperature. The tubes were then removed from the rotator, and the aqueous and organic phases were allowed to separate for 1 h. An aliquot of the organic layer was taken and diluted 200-fold into a mixture of 1:1 buffer: acetonitrile (ACN). An aliquot of the aqueous layer was taken and diluted 2-fold, 10-fold and 200-fold into a mixture of 1:1 buffer: ACN. All samples were assayed by LC–MS/MS on a Thermo BDS Hypersil C18 column (30 × 2.1 mm, 3 μm) using electrospray ionization, as previously reported ([Journigan et al., 2020]).

The test system of another data set is oxaliplatin-treated mice. Kind of data set: Oxaliplatin-induced cold hyperalgesia, cold-plantar test. It is filed as in vivo, mouse. The conditions noted are these: for reversal of cold hypersensitivity (withdrawal latency) / increase in latency (AUC) compared to baseline: oxaliplatin group; for influence on oxaliplatin-induced cold hypersensitivity: 30 mg·kg−1 alone. How it is done:
Male and female C57 BL/6J mice from Taconic Labs were randomized by sex and cage to oxaliplatin or vehicle groups. Mice were weighed and injected intraperitoneally (i.p.) with either oxaliplatin (3 mg·kg^−1), or vehicle (5% dextrose) once per day every day for five consecutive days, followed by five days off, and then by a second round of once per day for five more days. Therefore, mice received a total of 10 injections for a total of 30 mg·kg^−1. The average weight of the females was 18 g while of the males was 20 g. Consequently, the females received an average of 540 and the males 600 μg in total. Behavioural testing was started after the second round of oxaliplatin/vehicle administration. The cold-plantar test was used to assess changes in cold sensitivity. A 3 ml syringe barrel filled with powdered dry ice was used as the stimulus. The dry ice is placed on the glass (borosilicate glass; thickness, 1/8 in. (3.17 mm); temperature, 75°F (24°C), measured with a calibrated IR temperature probe) beneath the hindpaw and the latency to withdraw was determined ([Yilmaz et al., 2017]). The baseline withdrawal latency was determined from the mean of three stimulus applications (at an inter-stimulus interval of ~5 min), while that at each time interval after the administration of a test agent was again the mean of three stimulus applications bracketing the time point in question (i.e., 5 min before, at the time point, and 5 min after). Mice in the two groups defined by oxaliplatin treatment were subsequently randomized to the order of treatment (with the TRPM8 antagonist VBJ103, or vehicle control). VBJ103 and vehicle solutions were administered subcutaneously (s.c.) at doses of 3, 10 and 30 mg·kg^−1. Mice were tested every other day over 7 days so that each mouse received all four injections (vehicle and three doses of VBJ103). In a second cohort of male (n = 8) and female (n = 8) mice, all mice were treated with oxaliplatin as described above, and then randomized to the order of treatment with vehicle, VBJ103 (30 mg·kg^−1) alone, the TRPA1 antagonist, HC-030031 (200 mg·kg^−1) alone, or the combination of VBJ103 (30 mg·kg^−1) and HC-030031 (200 mg·kg^−1). A third cohort of male (n = 7) and female (n = 8) mice was also treated with oxaliplatin as described above. […] All test agents in both follow-up cohorts were again administered in a volume of 5 ml·kg^−1. Mice in both follow-up cohorts were again tested every other day over a period of 6 days. Finally, a fourth cohort of male (n = 4) and female (n = 4) mice was used to confirm that 200 mg·kg^−1 HC-030031 was sufficient to block TRPA1. For this experiment, mice were randomized to the order of treatment with vehicle or HC-030031 ([…]).

For the next data set, the system named is TRPM8. On the set-up: method as in Journigan et al., 2020. To be noted: 30 mg·kg−1, s.c.; ref Journigan et al., 2020; cited from earlier work.

Broadly, the logD is the decadic logarithm of the distribution of all forms, ionised or not, between an organic phase and buffer at a given pH.

Molecule `O=C(NC1CCC2(CCCC2)CC1)c1ccc(-c2ccccc2)cc1` [VBJ103, N-(Spiro[4.5]decan-8-yl)-[1,1′-biphenyl]-4-carboxamide] yielded a logD at 1 h in data set [1] of 3.21. For the same molecule, the “reversal of cold hypersensitivity (withdrawal latency)” value with oxaliplatin-treated mice (3 mg·kg−1 s.c., at 2 h) is “significant reversals in hypersensitivity”; in the data set with oxaliplatin-treated mice (10 mg·kg−1 s.c., at 1 and 2 h), “significant reversals in hypersensitivity”; with oxaliplatin-treated mice (30 mg·kg−1 s.c., at 0.5, 1 and 2 h), “significant reversals in hypersensitivity”. For the same molecule, the “increase in latency (AUC) compared to baseline” value in the data set with oxaliplatin-treated mice (10 mg·kg−1 s.c.) and in the data set with oxaliplatin-treated mice (30 mg·kg−1 s.c.) was “significant” in each case. Moreover, the “influence on oxaliplatin-induced cold hypersensitivity” value was “significantly attenuated oxaliplatin-induced cold hypersensitivity at all time points tested” in the data set with oxaliplatin-treated mice (second cohort, vehicle 0.5% Methocel) and “significantly reversed” in the data set on oxaliplatin-treated mice (third cohort, vehicle 1:1 DMSO:water). The “influence on withdrawal latency to noxious cold stimuli” value is “no detectable influence of GBR12909 on the withdrawal latency” with oxaliplatin-treated mice (VBJ103 30 mg·kg−1 in combination with GBR12909 20 mg·kg−1, third cohort) and “not detectably different from the influence of VBJ103 alone” with oxaliplatin-treated mice (VBJ103 30 mg·kg−1 in combination with HC-030031 200 mg·kg−1, second cohort). In the data set on oxaliplatin-treated mice (mice not treated with oxaliplatin, 3 to 30 mg·kg−1 s.c.), the “baseline responses to noxious cold compared to vehicle” value is recorded as “not altered”. Moreover, in the data set with TRPM8, the “icilin-induced wet dog shaking (WDS) behaviour” value is “suppresses”.
